MIC50 and MIC90 data for twelve compounds are collected here from ChEMBL document CHEMBL5325486, “Synthesis of novobiocin derivatives and evaluation of their antigonococcal activity and pharmacokinetics” (Bioorg Med Chem, 2023).

≈ marks a conversion by molar mass, not a printed value. A value given as a limit tells only on which side of the number the result lay.

One experiment has as its system Neisseria gonorrhoeae. As to the kind of experiment: Antibacterial activity against resistant Neisseria gonorrhoeae assessed inhibition of bacterial growth. The experiment is classed as functional.
The next experiment relates to Staphylococcus aureus. The experiment can be described thus: Antibacterial activity against Staphylococcus aureus assessed inhibition of bacterial growth. The experiment is classed as functional.

One may read the MIC50 as an inhibitory concentration at the 50% level, which refers to growth in some studies and to a panel of isolates in others. The low end stands for higher susceptibility, the high end for lower susceptibility. As a reminder, the MIC90 is an inhibitory concentration at the 90% level, which refers to growth in some studies and to a panel of isolates in others. A low value points to higher susceptibility.

In the experiment on Neisseria gonorrhoeae, `C=CCONC(=O)O[C@H]1[C@@H](O)[C@H](Oc2ccc3c(O)c(NC(=O)c4ccc(O)c(CC=C(C)C)c4)c(=O)oc3c2C)OC(C)(C)[C@@H]1OC` yielded an MIC50 of 1 µg/mL (≈ 1.5 µM) and an MIC90 of 2 µg/mL (≈ 2.99 µM). In the experiment with Staphylococcus aureus, this compound came in with an MIC50 of 0.125 µg/mL (≈ 0.187 µM) and an MIC90 of 0.25 µg/mL (≈ 0.374 µM).
With `CO[C@@H]1[C@@H](OC(=O)c2ccc(C)[nH]2)[C@@H](O)[C@H](Oc2ccc3c(O)c(NC(=O)c4c[nH]cn4)c(=O)oc3c2C)OC1(C)C`, in the experiment on Neisseria gonorrhoeae, the MIC50 is 1 µg/mL (≈ 1.72 µM) and the MIC90 came out at 1 µg/mL (≈ 1.72 µM). In the experiment on Staphylococcus aureus, this compound yielded an MIC50 of 1 µg/mL (≈ 1.72 µM) and an MIC90 of 1 µg/mL (≈ 1.72 µM).
In the experiment with Neisseria gonorrhoeae, `CCc1cc(C(=O)Nc2c(O)c3ccc(O[C@@H]4OC(C)(C)[C@H](OC)[C@@H](OC(=O)c5ccc(C)[nH]5)[C@H]4O)c(C)c3oc2=O)ccn1` had an MIC50 of 0.5 µg/mL (≈ 0.804 µM) and an MIC90 of 1 µg/mL (≈ 1.61 µM). In the experiment with Staphylococcus aureus, the MIC50 was found to be 0.5 µg/mL (≈ 0.804 µM) and the MIC90 worked out at 1 µg/mL (≈ 1.61 µM).
Turning to `CO[C@@H]1[C@@H](OC(N)=O)[C@@H](O)[C@H](Oc2ccc3c(O)c(NC(=O)c4ccc(O)c(CC=C(C)C)c4)c(=O)oc3c2C)OC1(C)C` [NOVOBIOCIN], the MIC50 in the experiment on Neisseria gonorrhoeae is 1 µg/mL (≈ 1.63 µM); against Staphylococcus aureus, 0.25 µg/mL (≈ 0.408 µM). Moreover, the MIC90 against Neisseria gonorrhoeae turned out to be 2 µg/mL (≈ 3.26 µM); in the experiment on Staphylococcus aureus, 0.25 µg/mL (≈ 0.408 µM).
In the experiment with Neisseria gonorrhoeae, `CO[C@@H]1[C@@H](OC(=O)c2ccc(C)[nH]2)[C@@H](O)[C@H](Oc2ccc3c(O)c(NC(=O)c4cn(CC5CC5)cn4)c(=O)oc3c2C)OC1(C)C` showed an MIC50 of 0.5 µg/mL (≈ 0.785 µM) and an MIC90 of 1 µg/mL (≈ 1.57 µM). Further, in the experiment with Staphylococcus aureus, the MIC50 was determined as 0.5 µg/mL (≈ 0.785 µM) and the MIC90 is 0.5 µg/mL (≈ 0.785 µM).
In the case of `CO[C@@H]1[C@@H](OC(=O)c2ccc(C)[nH]2)[C@@H](O)[C@H](Oc2ccc3c(O)c(NC(=O)c4cncn4C)c(=O)oc3c2C)OC1(C)C`, in the experiment with Neisseria gonorrhoeae, the MIC50 worked out at 0.5 µg/mL (≈ 0.838 µM) and the MIC90 came to 1 µg/mL (≈ 1.68 µM). In the experiment on Staphylococcus aureus, the MIC50 turned out to be 0.5 µg/mL (≈ 0.838 µM) and the MIC90 worked out at 0.5 µg/mL (≈ 0.838 µM).
With `C#CCCNC(=O)O[C@H]1[C@@H](O)[C@H](Oc2ccc3c(O)c(NC(=O)c4ccc(O)c(CC=C(C)C)c4)c(=O)oc3c2C)OC(C)(C)[C@@H]1OC`, the MIC50 was 16 µg/mL (≈ 24.1 µM) against Neisseria gonorrhoeae and 0.5 µg/mL (≈ 0.752 µM) against Staphylococcus aureus. Moreover, the values for the MIC90 in the experiment on Neisseria gonorrhoeae and in the experiment with Staphylococcus aureus were 32 µg/mL (≈ 48.1 µM) and 0.5 µg/mL (≈ 0.752 µM), respectively.
Take `CO[C@@H]1[C@@H](OC(=O)c2ccc(C)[nH]2)[C@@H](O)[C@H](Oc2ccc3c(O)c(NC(=O)c4cn(Cc5cccc(C(F)(F)F)c5)cn4)c(=O)oc3c2C)OC1(C)C`: in the experiment on Neisseria gonorrhoeae, the MIC50 worked out at 0.25 µg/mL (≈ 0.338 µM) and the MIC90 stood at 0.5 µg/mL (≈ 0.675 µM). Besides, in the experiment with Staphylococcus aureus, the MIC50 was determined as 0.125 µg/mL (≈ 0.169 µM) and the MIC90 worked out at 0.25 µg/mL (≈ 0.338 µM).
For the compound `CO[C@@H]1[C@@H](OC(=O)c2[nH]c(C)cc2C)[C@@H](O)[C@H](Oc2ccc3c(O)c(NC(=O)c4ccc(O)c(CC=C(C)C)c4)c(=O)oc3c2C)OC1(C)C`, in the experiment with Neisseria gonorrhoeae, the MIC50 stood at 0.25 µg/mL (≈ 0.362 µM) and the MIC90 worked out at 0.25 µg/mL (≈ 0.362 µM). In the experiment on Staphylococcus aureus, the MIC50 is 0.063 µg/mL (≈ 0.0912 µM) and the MIC90 came to 0.125 µg/mL (≈ 0.181 µM).
In the case of `CO[C@@H]1[C@@H](OC(=O)c2ccc[nH]2)[C@@H](O)[C@H](Oc2ccc3c(O)c(NC(=O)c4ccc(O)c(CC=C(C)C)c4)c(=O)oc3c2C)OC1(C)C`, the values for the MIC50 against Neisseria gonorrhoeae and against Staphylococcus aureus were 0.5 µg/mL (≈ 0.754 µM) and 0.125 µg/mL (≈ 0.189 µM), respectively. Further, the MIC90 worked out at 1 µg/mL (≈ 1.51 µM) against Neisseria gonorrhoeae and 0.25 µg/mL (≈ 0.377 µM) against Staphylococcus aureus.
In the experiment on Neisseria gonorrhoeae, `CO[C@@H]1[C@@H](OC(=O)c2ccc(C)[nH]2)[C@@H](O)[C@H](Oc2ccc3c(O)c(NC(=O)c4cccc(N5CCN(C)CC5)c4)c(=O)oc3c2C)OC1(C)C` had an MIC50 of 1 µg/mL (≈ 1.45 µM) and an MIC90 of 1 µg/mL (≈ 1.45 µM). In the experiment with Staphylococcus aureus, this compound yielded an MIC50 of 0.5 µg/mL (≈ 0.724 µM) and an MIC90 of 0.5 µg/mL (≈ 0.724 µM).
Consider `CC[C@H]1OC(=O)[C@H](C)[C@@H](O[C@H]2C[C@@](C)(OC)[C@@H](O)[C@H](C)O2)[C@H](C)[C@@H](O[C@@H]2O[C@H](C)C[C@H](N(C)C)[C@H]2O)[C@](C)(O)C[C@@H](C)CN(C)[C@H](C)[C@@H](O)[C@]1(C)O` [AZITHROMYCIN], for which, in the experiment on Neisseria gonorrhoeae, the MIC50 came out at 0.25 µg/mL (≈ 0.334 µM) and the MIC90 was 8 µg/mL (≈ 10.7 µM). Further, in the experiment on Staphylococcus aureus, the MIC50 was greater than 128 µg/mL and the MIC90 is greater than 128 µg/mL.
